{
  "source": "PubChem BioAssay (NCI)",
  "assay_in_all_cases": "growth of human tumour cells (NCI), 48 h",
  "key": {"786-0 renal": {"test_system": "786-0 renal"}, "A498 renal": {"test_system": "A498 renal"}, "A549 NSCLC": {"test_system": "A549 NSCLC"}, "ACHN renal": {"test_system": "ACHN renal"}, "CAKI-1 renal": {"test_system": "CAKI-1 renal"}, "CCRF-CEM leukemia": {"test_system": "CCRF-CEM leukemia"}, "COLO 205 colon": {"test_system": "COLO 205 colon"}, "DLD-1 colon": {"test_system": "DLD-1 colon"}, "DMS 114 small cell lung": {"test_system": "DMS 114 small cell lung"}, "DMS 273 small cell lung": {"test_system": "DMS 273 small cell lung"}, "EKVX NSCLC": {"test_system": "EKVX NSCLC"}, "HCC-2998 colon": {"test_system": "HCC-2998 colon"}, "HCT-116 colon": {"test_system": "HCT-116 colon"}, "HCT-15 colon": {"test_system": "HCT-15 colon"}, "HL-60(TB) leukemia": {"test_system": "HL-60(TB) leukemia"}, "HOP-18 NSCLC": {"test_system": "HOP-18 NSCLC"}, "HOP-62 NSCLC": {"test_system": "HOP-62 NSCLC"}, "HOP-92 NSCLC": {"test_system": "HOP-92 NSCLC"}, "HT29 colon": {"test_system": "HT29 colon"}, "IGROV1 ovarian": {"test_system": "IGROV1 ovarian"}, "K-562 leukemia": {"test_system": "K-562 leukemia"}, "KM12 colon": {"test_system": "KM12 colon"}, "KM20L2 colon": {"test_system": "KM20L2 colon"}, "LOX IMVI melanoma": {"test_system": "LOX IMVI melanoma"}, "LXFL 529 NSCLC": {"test_system": "LXFL 529 NSCLC"}, "M14 melanoma": {"test_system": "M14 melanoma"}, "M19-MEL melanoma": {"test_system": "M19-MEL melanoma"}, "MALME-3M melanoma": {"test_system": "MALME-3M melanoma"}, "MOLT-4 leukemia": {"test_system": "MOLT-4 leukemia"}, "NCI-H226 lung": {"test_system": "NCI-H226 lung"}, "NCI-H23 lung": {"test_system": "NCI-H23 lung"}, "NCI-H460 lung": {"test_system": "NCI-H460 lung"}, "OVCAR-3 ovarian": {"test_system": "OVCAR-3 ovarian"}, "OVCAR-4 ovarian": {"test_system": "OVCAR-4 ovarian"}, "OVCAR-5 ovarian": {"test_system": "OVCAR-5 ovarian"}, "OVCAR-8 ovarian": {"test_system": "OVCAR-8 ovarian"}, "RPMI-8226 leukemia": {"test_system": "RPMI-8226 leukemia"}, "RXF 393 renal": {"test_system": "RXF 393 renal"}, "RXF-631 renal": {"test_system": "RXF-631 renal"}, "SF-268 CNS": {"test_system": "SF-268 CNS"}, "SF-295 CNS": {"test_system": "SF-295 CNS"}, "SF-539 CNS": {"test_system": "SF-539 CNS"}, "SK-MEL-2 melanoma": {"test_system": "SK-MEL-2 melanoma"}, "SK-MEL-28 melanoma": {"test_system": "SK-MEL-28 melanoma"}, "SK-MEL-5 melanoma": {"test_system": "SK-MEL-5 melanoma"}, "SK-OV-3 ovarian": {"test_system": "SK-OV-3 ovarian"}, "SN12C renal": {"test_system": "SN12C renal"}, "SNB-19 CNS": {"test_system": "SNB-19 CNS"}, "SNB-75 CNS": {"test_system": "SNB-75 CNS"}, "SNB-78 CNS": {"test_system": "SNB-78 CNS"}, "SR leukemia": {"test_system": "SR leukemia"}, "SW-620 colon": {"test_system": "SW-620 colon"}, "TK-10 renal": {"test_system": "TK-10 renal"}, "U251 CNS": {"test_system": "U251 CNS"}, "UACC-257 melanoma": {"test_system": "UACC-257 melanoma"}, "UACC-62 melanoma": {"test_system": "UACC-62 melanoma"}, "UO-31 renal": {"test_system": "UO-31 renal"}},
  "note": "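1) Cells in 96-well plates. 2) Compound, 48 h, 5 concentrations. 3) Linear interpolation between surrounding doses. 4) Unreached endpoint = highest concentration. At the TGI there is no net growth.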",
  "data": [
    {"smiles": "CC(C)c1cccc(C(C)C)c1NC(=O)C(=O)C1CCC2=C(Sc3ccccc3N2)C1=O", "note": "(configuration not stated)", "values": [
      {"measurement": "TGI", "setting": "786-0 renal", "result": "> 100", "unit": "µM"},
      {"measurement": "TGI", "setting": "A498 renal", "result": "> 100", "unit": "µM"},
      {"measurement": "TGI", "setting": "A549 NSCLC", "result": "> 100", "unit": "µM"},
      {"measurement": "TGI", "setting": "ACHN renal", "result": "> 100", "unit": "µM"},
      {"measurement": "TGI", "setting": "CAKI-1 renal", "result": "> 100", "unit": "µM"},
      {"measurement": "TGI", "setting": "CCRF-CEM leukemia", "result": "> 100", "unit": "µM"},
      {"measurement": "TGI", "setting": "COLO 205 colon", "result": 79.7, "unit": "µM"},
      {"measurement": "TGI", "setting": "DLD-1 colon", "result": "> 100", "unit": "µM"},
      {"measurement": "TGI", "setting": "DMS 114 small cell lung", "result": "> 100", "unit": "µM"},
      {"measurement": "TGI", "setting": "DMS 273 small cell lung", "result": "> 100", "unit": "µM"},
      {"measurement": "TGI", "setting": "EKVX NSCLC", "result": "> 100", "unit": "µM"},
      {"measurement": "TGI", "setting": "HCC-2998 colon", "result": "> 100", "unit": "µM"},
      {"measurement": "TGI", "setting": "HCT-116 colon", "result": "> 100", "unit": "µM"},
      {"measurement": "TGI", "setting": "HCT-15 colon", "result": "> 100", "unit": "µM"},
      {"measurement": "TGI", "setting": "HL-60(TB) leukemia", "result": "> 100", "unit": "µM"},
      {"measurement": "TGI", "setting": "HOP-18 NSCLC", "result": "> 100", "unit": "µM"},
      {"measurement": "TGI", "setting": "HOP-62 NSCLC", "result": "> 100", "unit": "µM"},
      {"measurement": "TGI", "setting": "HOP-92 NSCLC", "result": "> 100", "unit": "µM"},
      {"measurement": "TGI", "setting": "HT29 colon", "result": "> 100", "unit": "µM"},
      {"measurement": "TGI", "setting": "IGROV1 ovarian", "result": "> 100", "unit": "µM"},
      {"measurement": "TGI", "setting": "K-562 leukemia", "result": "> 100", "unit": "µM"},
      {"measurement": "TGI", "setting": "KM12 colon", "result": "> 100", "unit": "µM"},
      {"measurement": "TGI", "setting": "KM20L2 colon", "result": "> 100", "unit": "µM"},
      {"measurement": "TGI", "setting": "LOX IMVI melanoma", "result": "> 100", "unit": "µM"},
      {"measurement": "TGI", "setting": "LXFL 529 NSCLC", "result": "> 100", "unit": "µM"},
      {"measurement": "TGI", "setting": "M14 melanoma", "result": "> 100", "unit": "µM"},
      {"measurement": "TGI", "setting": "M19-MEL melanoma", "result": "> 100", "unit": "µM"},
      {"measurement": "TGI", "setting": "MALME-3M melanoma", "result": "> 100", "unit": "µM"},
      {"measurement": "TGI", "setting": "MOLT-4 leukemia", "result": "> 100", "unit": "µM"},
      {"measurement": "TGI", "setting": "NCI-H226 lung", "result": "> 100", "unit": "µM"},
      {"measurement": "TGI", "setting": "NCI-H23 lung", "result": "> 100", "unit": "µM"},
      {"measurement": "TGI", "setting": "NCI-H460 lung", "result": "> 100", "unit": "µM"},
      {"measurement": "TGI", "setting": "OVCAR-3 ovarian", "result": "> 100", "unit": "µM"},
      {"measurement": "TGI", "setting": "OVCAR-4 ovarian", "result": "> 100", "unit": "µM"},
      {"measurement": "TGI", "setting": "OVCAR-5 ovarian", "result": "> 100", "unit": "µM"},
      {"measurement": "TGI", "setting": "OVCAR-8 ovarian", "result": "> 100", "unit": "µM"},
      {"measurement": "TGI", "setting": "RPMI-8226 leukemia", "result": "> 100", "unit": "µM"},
      {"measurement": "TGI", "setting": "RXF 393 renal", "result": "> 100", "unit": "µM"},
      {"measurement": "TGI", "setting": "RXF-631 renal", "result": "> 100", "unit": "µM"},
      {"measurement": "TGI", "setting": "SF-268 CNS", "result": "> 100", "unit": "µM"},
      {"measurement": "TGI", "setting": "SF-295 CNS", "result": "> 100", "unit": "µM"},
      {"measurement": "TGI", "setting": "SF-539 CNS", "result": 76.7, "unit": "µM"},
      {"measurement": "TGI", "setting": "SK-MEL-2 melanoma", "result": "> 100", "unit": "µM"},
      {"measurement": "TGI", "setting": "SK-MEL-28 melanoma", "result": "> 100", "unit": "µM"},
      {"measurement": "TGI", "setting": "SK-MEL-5 melanoma", "result": "> 100", "unit": "µM"},
      {"measurement": "TGI", "setting": "SK-OV-3 ovarian", "result": "> 100", "unit": "µM"},
      {"measurement": "TGI", "setting": "SN12C renal", "result": "> 100", "unit": "µM"},
      {"measurement": "TGI", "setting": "SNB-19 CNS", "result": "> 100", "unit": "µM"},
      {"measurement": "TGI", "setting": "SNB-75 CNS", "result": "> 100", "unit": "µM"},
      {"measurement": "TGI", "setting": "SNB-78 CNS", "result": "> 100", "unit": "µM"},
      {"measurement": "TGI", "setting": "SR leukemia", "result": "> 100", "unit": "µM"},
      {"measurement": "TGI", "setting": "SW-620 colon", "result": 32.5, "unit": "µM"},
      {"measurement": "TGI", "setting": "TK-10 renal", "result": "> 100", "unit": "µM"},
      {"measurement": "TGI", "setting": "U251 CNS", "result": "> 100", "unit": "µM"},
      {"measurement": "TGI", "setting": "UACC-257 melanoma", "result": "> 100", "unit": "µM"},
      {"measurement": "TGI", "setting": "UACC-62 melanoma", "result": "> 100", "unit": "µM"},
      {"measurement": "TGI", "setting": "UO-31 renal", "result": "> 100", "unit": "µM"}
    ]}
  ]
}
